SMILES strings stand for the structures. Activity calls are given as the source filed them.

For test [1], the system named is BJ. The experiment in a line: cytotoxicity toward BJ-TERT fibroblasts, dose response, cell-based, RAS-independent, luminescence (AID 1933). It counts as functional. The following applies: Homo sapiens.
Test [2] deals with BJ. The experiment in a line: cells. It counts as functional, cell-based. The following applies: Homo sapiens.
The subject of test [3] is BJ. The test is described as follows: cytotoxicity toward BJ-TERT-LT-ST fibroblasts, dose response, cell-based, RAS-independent, luminescence (AID 1935).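 Note: BJ fibroblasts immortalized with TERT plus LT and ST oncogenes.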 It counts as functional. The following applies: Homo sapiens.
Test [4] is described as follows: cytotoxicity toward DRD oncogenic fibroblasts, dose response, cell-based, non-viral oncogenic, luminescence (AID 1934). The test is classed as functional. Particulars: Homo sapiens.
Test [5] in a line: THP-1 cell cytotoxicity, dose response, cytotoxicity control for non-replicating M. tuberculosis project (AID 489025). It counts as functional.
A short description of test [6]: Luminescence Cell-Based Dose Retest to Confirm Inhibitors of Cancer Stem Cells. [Related pubchem assays (depositor defined):AID2717, AID2721]. The following applies: Homo sapiens. The test is classed as functional, Homo sapiens.
The nature of test [7]: Vero E6 cell cytotoxicity, dose response, cytotoxicity control for non-replicating M. tuberculosis project, secondary assay (AID 492998). Particulars: Vero C1008. It counts as functional, VeroE6.
In test [8] the target is Neurotensin receptor type 1 (Homo sapiens, UniProt P30989). The test is classed as functional.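 Note: Image-based confirmatory dose-response assay measuring agonist activity at NTR1; NTR1-expressing U2OS osteosarcoma cells imaged for beta-arrestin GFP spot formation; agonist potency where compounds increase beta-arrestin recruitment.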
The next test is described as follows: cells. The test is classed as functional.
Test [9] deals with HEK293. The experiment in a line: NOD1 signaling inhibitors, primary screen, cell-based, luminescence, uHTS (AID 1578). The test is classed as functional. Particulars: Homo sapiens.
The subject of test [10] is HEK293. The experiment in a line: cells. The test is classed as functional, cell-based. The following applies: Homo sapiens.
Test [11] has as its system HEK293. The experiment in a line: cells. Particulars: Homo sapiens. It counts as functional, cell-based. The source holds these as a separate data set.
Test [12] can be described thus: cytotoxicity in HPDE-C7 cells, cell-based, fluorescence, HTS (AID 430). The test is classed as functional. Particulars: Homo sapiens.
For test [13], the system named is HEK293. The experiment in a line: NOD2 signaling inhibitors in MDP-stimulated cells, cell-based, uHTS, luminescence (AID 2001). The test is classed as functional. Particulars: Homo sapiens.
Test [14] is described as follows: cytotoxicity in KRAS-transformed pancreatic duct cells, primary screen, cell-based, fluorescence, HTS (AID 431).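 Note: cell line used: HPDE-C7K.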 The test is classed as functional. Particulars: Homo sapiens.
Test [15] can be described thus: growth suppression of PTEN-null colon cells, dose response, cell-based, HCT116 PTEN knockout (AID 1047).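 Note: HCT116 colon tumor cells with PTEN knocked out; cells exposed to compound for 60 hours before readout; potency for loss of cell viability measured by luminescence.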 It counts as functional.
Test [16] is described as follows: growth suppression of beta-catenin-knockout colon cells, dose response, cell-based, HCT116, human colon tumor (AID 1045).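 Note: HCT116 colon tumor cells with beta catenin knocked out; cells exposed to compound for 60 hours.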 It counts as functional.
The target of another test is Tumor necrosis factor (Homo sapiens, UniProt P01375). The test is described as follows: TNFa-triggered NF-kB activation inhibitors, SAR follow-up, cell-based, revised (AID 2337). It counts as functional.
In test [17] the target is T1, Nucleotide-binding oligomerization domain-containing protein 1 (Homo sapiens, UniProt Q9Y239).
T1 sequence (Q9Y239 whole entry): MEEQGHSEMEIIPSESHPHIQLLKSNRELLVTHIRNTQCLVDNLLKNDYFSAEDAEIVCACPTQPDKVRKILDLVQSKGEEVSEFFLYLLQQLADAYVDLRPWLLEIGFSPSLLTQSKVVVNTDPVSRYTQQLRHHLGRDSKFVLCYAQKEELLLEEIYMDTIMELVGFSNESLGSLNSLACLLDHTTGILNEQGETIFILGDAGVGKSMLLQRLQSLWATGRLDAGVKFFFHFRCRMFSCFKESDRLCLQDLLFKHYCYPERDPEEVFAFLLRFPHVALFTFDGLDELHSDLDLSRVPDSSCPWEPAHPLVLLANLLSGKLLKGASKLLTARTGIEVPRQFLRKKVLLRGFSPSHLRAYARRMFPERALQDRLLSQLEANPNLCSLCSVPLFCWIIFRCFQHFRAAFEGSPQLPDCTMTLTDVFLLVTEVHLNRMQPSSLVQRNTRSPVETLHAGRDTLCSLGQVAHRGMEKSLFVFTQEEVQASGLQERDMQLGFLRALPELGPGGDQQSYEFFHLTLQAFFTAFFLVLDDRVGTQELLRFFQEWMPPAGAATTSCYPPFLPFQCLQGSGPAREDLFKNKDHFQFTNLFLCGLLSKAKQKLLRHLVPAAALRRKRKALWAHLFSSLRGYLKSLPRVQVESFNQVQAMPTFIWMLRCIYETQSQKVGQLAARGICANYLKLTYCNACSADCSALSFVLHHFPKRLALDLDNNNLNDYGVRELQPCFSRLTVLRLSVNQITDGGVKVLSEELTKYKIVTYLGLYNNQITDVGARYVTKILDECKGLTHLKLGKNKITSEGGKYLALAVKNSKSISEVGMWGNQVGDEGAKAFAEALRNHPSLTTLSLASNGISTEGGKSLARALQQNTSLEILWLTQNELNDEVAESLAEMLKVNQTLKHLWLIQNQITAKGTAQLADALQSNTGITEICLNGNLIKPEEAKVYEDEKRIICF
The experiment in a line: NOD1 signaling inhibitors, SAR follow-up, revised (AID 2333). It counts as functional.

In test [18] the target is Nucleotide-binding oligomerization domain-containing protein 2 (Homo sapiens, UniProt Q9HC29). The test is described as follows: PubChem AID 2334. It counts as functional.
A short description of test [19]: A549 cell cytotoxicity, dose response, cytotoxicity control, plate reader, cherry-pick, antagonist series (AID 743412). It counts as functional, cell-based.
Test [20] can be described thus: LGR2 antagonists, dose response, cell-based, HEK293, CRE-luciferase reporter, cherry pick, set 2 (AID 743343).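 Note: transfected cells were stimulated with diluted bursicon conditioned medium after compound addition.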 It counts as functional. (In general: In a reporter assay the amount or activity of a reporter protein is the signal.)
Test [21] in a line: MC4R antagonists, dose response, counter-screen for LGR2 antagonist project, cell-based, plate reader, cherry pick (AID 743444).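 Note: transfected HEK 293 cells stimulated with alpha-MSH peptide; potency of inhibitors of the alpha-MSH evoked signal.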 The test is classed as functional. Background: Counterscreens check selectivity or assay interference.
Test [22] deals with HEK293. The experiment in a line: cells. The following applies: Homo sapiens.
Test [23] concerns the target T2, Eukaryotic translation initiation factor 2-alpha kinase 3 (Homo sapiens, UniProt Q9NZJ5).
T2 sequence (Q9NZJ5 whole entry): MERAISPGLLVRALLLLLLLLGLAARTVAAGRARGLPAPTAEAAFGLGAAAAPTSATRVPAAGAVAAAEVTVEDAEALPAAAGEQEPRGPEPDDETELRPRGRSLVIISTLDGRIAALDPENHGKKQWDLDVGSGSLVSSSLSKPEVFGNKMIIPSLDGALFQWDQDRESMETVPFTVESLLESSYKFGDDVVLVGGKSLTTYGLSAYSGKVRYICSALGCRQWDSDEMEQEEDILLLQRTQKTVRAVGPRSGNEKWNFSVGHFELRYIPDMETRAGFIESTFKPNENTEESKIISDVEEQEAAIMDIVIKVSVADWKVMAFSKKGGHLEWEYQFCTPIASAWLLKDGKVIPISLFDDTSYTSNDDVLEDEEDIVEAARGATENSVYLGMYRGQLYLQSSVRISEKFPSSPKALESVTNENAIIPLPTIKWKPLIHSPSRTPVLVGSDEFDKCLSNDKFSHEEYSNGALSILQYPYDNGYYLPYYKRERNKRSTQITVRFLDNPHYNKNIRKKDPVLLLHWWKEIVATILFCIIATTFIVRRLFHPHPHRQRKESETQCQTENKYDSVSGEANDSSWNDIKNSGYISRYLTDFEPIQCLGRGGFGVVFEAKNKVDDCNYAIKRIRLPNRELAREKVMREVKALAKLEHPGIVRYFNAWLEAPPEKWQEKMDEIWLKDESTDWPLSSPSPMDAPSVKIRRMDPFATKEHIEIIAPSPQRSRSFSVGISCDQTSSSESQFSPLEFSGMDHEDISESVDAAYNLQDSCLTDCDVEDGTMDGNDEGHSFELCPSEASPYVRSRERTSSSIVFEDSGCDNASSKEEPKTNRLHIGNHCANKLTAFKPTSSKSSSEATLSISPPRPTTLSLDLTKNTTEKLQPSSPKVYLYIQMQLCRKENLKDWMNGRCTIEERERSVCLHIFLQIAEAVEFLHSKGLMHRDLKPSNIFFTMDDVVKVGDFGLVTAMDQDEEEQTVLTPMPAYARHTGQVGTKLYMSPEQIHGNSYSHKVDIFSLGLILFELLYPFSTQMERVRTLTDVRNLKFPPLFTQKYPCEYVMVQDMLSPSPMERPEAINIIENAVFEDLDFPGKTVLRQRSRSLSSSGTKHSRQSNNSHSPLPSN
The experiment in a line: Dose response cell-based high-throughput screening assay to measure PERK inhibition. [Related pubchem assays: 1416 ]. It counts as functional.

Test [24] has as its target T2, Eukaryotic translation initiation factor 2-alpha kinase 3. The test is described as follows: Counterscreen assay for PERK inhibitors: Dose response cell-based high throughput screening assay to measure inhibition of PERK at 6 hours. [Related pubchem assays: 1522, 1416 ]. The test is classed as functional.

Chain of Tumor necrosis factor (P01375 whole entry, the tested form may be a part): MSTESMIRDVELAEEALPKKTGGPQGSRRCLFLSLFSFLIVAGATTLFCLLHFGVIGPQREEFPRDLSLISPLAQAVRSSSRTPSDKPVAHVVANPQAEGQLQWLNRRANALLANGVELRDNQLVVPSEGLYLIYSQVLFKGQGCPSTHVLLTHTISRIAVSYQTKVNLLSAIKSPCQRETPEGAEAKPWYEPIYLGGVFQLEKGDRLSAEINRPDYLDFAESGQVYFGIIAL
Chain of Nucleotide-binding oligomerization domain-containing protein 2 (Q9HC29 whole entry, the tested form may be a part): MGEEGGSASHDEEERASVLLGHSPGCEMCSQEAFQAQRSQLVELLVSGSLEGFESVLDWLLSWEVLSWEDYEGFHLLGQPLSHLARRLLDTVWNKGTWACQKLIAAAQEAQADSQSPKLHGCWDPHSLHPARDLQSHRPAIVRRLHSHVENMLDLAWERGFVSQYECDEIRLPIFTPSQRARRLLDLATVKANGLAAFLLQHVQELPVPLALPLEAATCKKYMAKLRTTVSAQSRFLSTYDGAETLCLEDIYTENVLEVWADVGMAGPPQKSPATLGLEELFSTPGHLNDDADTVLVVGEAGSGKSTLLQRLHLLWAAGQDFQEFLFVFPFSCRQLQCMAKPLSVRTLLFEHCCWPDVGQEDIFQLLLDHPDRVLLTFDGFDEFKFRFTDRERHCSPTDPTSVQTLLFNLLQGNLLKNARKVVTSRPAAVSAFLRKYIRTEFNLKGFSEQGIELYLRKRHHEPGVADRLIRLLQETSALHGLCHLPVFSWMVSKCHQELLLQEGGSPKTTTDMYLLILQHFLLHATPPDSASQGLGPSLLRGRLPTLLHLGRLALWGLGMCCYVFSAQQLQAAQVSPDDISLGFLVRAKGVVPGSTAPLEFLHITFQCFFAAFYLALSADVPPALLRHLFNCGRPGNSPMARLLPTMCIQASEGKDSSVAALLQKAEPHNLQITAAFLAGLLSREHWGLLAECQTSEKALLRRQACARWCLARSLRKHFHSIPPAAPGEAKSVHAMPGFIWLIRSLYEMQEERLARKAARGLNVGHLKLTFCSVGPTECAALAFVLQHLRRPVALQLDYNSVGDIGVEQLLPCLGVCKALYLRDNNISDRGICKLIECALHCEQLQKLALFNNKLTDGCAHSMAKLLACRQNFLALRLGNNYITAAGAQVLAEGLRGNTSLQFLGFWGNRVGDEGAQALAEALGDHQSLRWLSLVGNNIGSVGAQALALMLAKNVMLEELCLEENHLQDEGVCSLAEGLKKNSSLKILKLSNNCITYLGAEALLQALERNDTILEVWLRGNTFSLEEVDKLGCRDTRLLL
Chain of Neurotensin receptor type 1 (P30989 whole entry): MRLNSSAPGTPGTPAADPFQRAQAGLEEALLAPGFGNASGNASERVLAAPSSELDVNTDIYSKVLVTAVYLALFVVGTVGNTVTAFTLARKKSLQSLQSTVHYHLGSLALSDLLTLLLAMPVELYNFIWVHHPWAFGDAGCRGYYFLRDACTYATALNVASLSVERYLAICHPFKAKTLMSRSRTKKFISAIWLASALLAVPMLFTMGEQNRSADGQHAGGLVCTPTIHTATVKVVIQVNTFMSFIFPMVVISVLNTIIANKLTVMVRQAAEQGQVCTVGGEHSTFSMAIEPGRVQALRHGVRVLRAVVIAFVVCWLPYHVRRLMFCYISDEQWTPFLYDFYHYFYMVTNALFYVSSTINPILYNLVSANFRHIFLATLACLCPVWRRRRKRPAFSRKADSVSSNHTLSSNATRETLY

As usually defined, the EC50 is the concentration needed to bring the measured effect to its halfway point. For orientation: CC50 means the concentration that lowers cell viability or growth by half. Broadly, the AC50 is the concentration at which the activity in the assay is half-maximal. In general, IC50 refers to the point on the concentration scale where inhibition reaches its midpoint. For `O=C1NC(=O)N(CCc2ccc(F)cc2)C(=O)/C1=C/C=C/c1ccccc1`, the EC50 was 5.32 µM (inconclusive) in the test with BJ [1]; > 150 µM (not active) in the test on BJ [2]; 11.6 µM (inconclusive) in the test with BJ [3]; 5.39 µM (inconclusive) in test [4]; 39.3 µM (inactive) in test [8]. For the same compound, the CC50 was 5.09 µM (active) in test [5] and 16.8 µM (active) in [7]. Further, the concentration at half-maximal activity (AC50) in test [6] is 1.05 µM (active). In addition, the IC50 in “cells” was 48.4 µM (active).

In the case of `CCCc1nc(SCC(=O)N2CCC(Cc3ccccc3)CC2)c2c(=O)n(C)c(=O)n(C)c2n1`, the EC50 in the test with HEK293 [9] is 5.46 µM (active); in test [12] it was 6.8 µM (active); in test [14], 6.62 µM (active); in [15] it was 33.6 µM (active); in [16], 33.7 µM (active). The IC50 is > 20 µM (inactive) with HEK293 [10]; 8.67 µM (active) in the test with HEK293 [11]; 5.22 µM (active) in the test on HEK293 [13]; 11 µM (active) at Tumor necrosis factor; 12.2 µM (active) in test [17]; 11.4 µM (active) in [18]. Further, the IC50 in the test with HEK293 [22] is 19.3 µM (active). The AC50 is > 52 µM (inactive) in test [19], 18.6 µM (active) in test [20] and 17.9 µM (active) in test [21].

Regarding `Cc1ccc(NC(=O)COC(=O)CCc2c[nH]c(O)n2)cc1`, the EC50 in test [23] and in test [24] was > 55.7 µM (not active) each time.

As to `COC(=O)c1c(NC(=O)C(=O)N2CCCCC2)sc2c1CC(C)(C)OC2`, the IC50 (at Tumor necrosis factor; in test [17]; in test [18]; in the test on HEK293 [22]) was > 20 µM (inactive) throughout.

Source of the values: ChEMBL document CHEMBL1201862, “PubChem BioAssay data set” (2004).
